Laboratory results as given in US20240083933A1, “DISACCHARIDES FOR TREATING BONE DISEASES” (UNIVERSITE DE PICARDIE JULES VERNE, priority 2020, published 2024).
Values belong to the molecule of their own block, whether it stands above or below them.

Legend:
MC3T3-E1 cells = assay: Calcium assay (pro-calcifying activity) on mouse pre-osteoblastic cells; type: cell-based; details: for production of calcium by the MC3T3-E1 cells (calcium dosage in culture medium): 9 days, 4 mM Pi, 30 μM compound, vs control+Pi (FIG. 1); for increase in calcification relative to the mineralizing medium: MC3T3-E1, 25 days
Protocol: FIG. 1 represents the calcium dosage in the MC3T3-E1 culture medium (in […] of protein per well) after 9 days of exposure of these cells to 4 mM of Pi ([…]) (control+Pi) and 4 mM of Pi in the presence of 30 μM of each of the compounds referenced DP2SNA, DP2NA, DP2K and DP2S;
(§1) For all experiments, a mouse pre-osteoblastic cell line (MC3T3-E1, ATCC) and human primary osteoblastic cells (HOb, Promocell) were used. The mouse pre-osteoblastic cells were cultured in 75 cm^2 flasks, containing 15 mL of α-MEM medium (M4526, SIGMA) and 10% fetal calf serum (FCS), containing 1% Penicillin/Streptomycin antibiotics and 1% glutamine. Similarly, human HOb cells were cultured in 75 cm 2 flasks containing 15 mL of proliferation medium (Human Osteoblast Proliferation Medium, PromoCell). The cells are maintained in the oven at 37° C., with 5% CO2 and 90% humidity. The medium was changed every three days.
(§2) MC3T3-E1 cells were seeded in 6-well plates at 63,700 cells/well to be treated in order to extract RNA or for alkaline phosphatase enzymatic activity assay and in 48-well plates for the calcium assay at 5250 cells/well. The HOb cells were seeded at 182,000 cells/well in 6-well plates for the extraction of RNA or for the alkaline phosphatase enzymatic activity assay; at 15,000 cells/well in 48-well plates for the calcium assay; at 10,000 cells/well in 48-well plates for the MTT test or the WST-1 test and at 100,000 cells/well in 6-well plates for the protein extraction or for the fluorescence.
(§3) In order to induce the mineralization, the MC3T3-E1 cells were treated with α-MEM medium containing 5% FCS to which 10 mM of β-glycerophosphate and 50 μg/mL of ascorbic acid are added. The HOb cells were treated with the “Osteoblast mineralization medium” (Promocell). […] After filtration, the cells were treated with the respective media (500 μL per well of the 48-well plate and 2 mL per well of the 6-well plate).
The release of calcium in the culture medium of mouse pre-osteoblastic cells (MC3T3-E1) has been studied.
An increase in calcification was observed, relative to the mineralizing medium (FIG. 2), in the presence of DP2R0 at 15 μM (40±2%), at 30 μM (28±18%) and at 50 μM (40±28%), and DP2NA at 15 μM (15±14%), at 30 μM (33±12%) and at 50 μM (10±19%).

HOb cells = assay: Calcium assay (pro-calcifying activity, mineralization) on human primary osteoblastic cells; type: cell-based; details: for increase in calcification relative to the mineralizing condition: HOb
Protocol: as §1, §2, §3
The calcification has also been studied on human osteoblastic cells (Hob, PromoCell, Heidelberg, Germany). They are isolated from femoral trabecular bone tissues.

[1] = Acetate migration DP2/DP2′ in solution (stability); type: physicochemical; details: water, after 44 days
Protocol: The compound DP2′ was extracted from the DP2-DP2′ mixture which is formed when the compound DP2 is dissolved in water. The compound DP2′ has been separated by preparative HPLC chromatography with water as elution solvent.
The inventors have observed that when the compound DP2′ was in water, the delocalization of the acetate group was also present, but with very slow kinetics compared to the DP2→DP2′ reaction. Thus, a solution of DP2′ in water which is left to rest contains, after 44 days, 10 to 15% of DP2. The DP2′ therefore remains alone in the water for a given duration which is quite long. It is therefore possible to test the biological effect of DP2′ in solution in water.
Similarly, the inventors have observed that the kinetics of the DP2→DP2′ reaction is such that it is also possible to test the biological activity of the compound DP2 alone after extraction of the formed compound DP2′. Thus, the two compounds DP2 and DP2′ can coexist or not in water for a given duration.
In methanol, for example, the compound DP2 is therefore alone.
There is about ⅔ of DP2R2 for ⅓ of DP2′. The compound DP2′ comes from a migration of the acetate group (R2) on the 30H position. The compound DP2′ could be isolated and synthesized as previously indicated. […]

SMILES: CCCO[C@H]1OC(CO)[C@@H](O[C@@H]2OC(CO)[C@@H](O)C(O)C2NC(C)=O)C(O)C1O (stereo partly drawn) [DP2NA, n-propyl, α-D-Glucopyranoside, 4-O-(2-acetamido-2-deoxy-β-D-glucopyranosyl)]
production of calcium by the MC3T3-E1 cells (calcium dosage in culture medium) (MC3T3-E1 cells): increase the production of calcium | increase in calcification relative to the mineralizing medium (MC3T3-E1 cells; 15 μM): 15±14% | increase in calcification relative to the mineralizing medium (MC3T3-E1 cells; 30 μM): 33±12% | increase in calcification relative to the mineralizing medium (MC3T3-E1 cells; 50 μM): 10±19% | increase in calcification relative to the mineralizing condition (HOb cells; 14 days, 15 μM): 45±42% | increase in calcification relative to the mineralizing condition (HOb cells; 14 days, 30 μM): 44±7% | increase in calcification relative to the mineralizing condition (HOb cells; 14 days, 50 μM): 35±8% | mineralization of the HOb cells relative to the mineralizing medium alone (HOb cells; lower concentrations 5, 7.5 and 10 μM (FIG. 4)): decrease in mineralization

DP2 content of a solution of DP2′ in water left to rest [1]: 10 to 15%
SMILES: CCCOC1OC(CO)C(OC2OC(CO)C(O)C(O)C2NC(C)=O)C(OC(C)=O)C1O [DP2′, n-propyl, 3-0-acetyl-α-D-Glucopyranoside, 4-O-(2-acetamido-2-deoxy-β-D-glucopyranosyl)]
percentage of mineralization of the HOb cells (HOb cells; 14 days, mineralizing conditions, 30 μM): 143.806±36.657%

SMILES: CCCO[C@H]1OC(COS(=O)(=O)[O-])[C@@H](O[C@@H]2OC(CO)[C@@H](O)C(O)C2NC(C)=O)C(O)C1O.[Na+] (stereo partly drawn) [DP2SNA, n-propyl, 6-O-sulfo-α-D-Glucopyranoside, 4-O-(2-acetamido-2-desoxy-β-D-glucopyranosyl), monosodium salt]
production of calcium by the MC3T3-E1 cells (calcium dosage in culture medium) (MC3T3-E1 cells): increase the production of calcium

SMILES: CCCO[C@H]1O[C@H](COS(=O)(=O)[O-])[C@@H](O[C@@H]2O[C@H](CO)[C@@H](O)[C@H](O)[C@H]2NC(C)=O)[C@H](O)[C@H]1OC(C)=O.[Na+] [DP2S, n-propyl, 2-0-acetyl-6-O-sulfo-α-D-Glucopyranoside, 4-O-(2-acetamido-2-desoxy-β-D-glucopyranosyl), monosodium salt]
production of calcium by the MC3T3-E1 cells (calcium dosage in culture medium) (MC3T3-E1 cells): significantly inhibits the expression of calcium
